How the values were obtained:
[1] = test system: SW620 (KRAS^G12V), Panc1 (KRAS^G12D) and H460 (KRAS^Q61H) cells; experiment: Western blot for MEK and ERK activation in KRAS mutant cells; assay type: cell-based, human; details: imatinib 10μM, nilotinib 1μM, dasatinib 5μM
BV173 cells = experiment: Western blots of CRAF immunoprecipitates and lysates, BV173 cells; assay type: cell-based, human
[2] = test system: K562 cells expressing HRAS^G12V; assay type: cell-based, human; details: pathway already saturated
CML = details: first-line treatment of CML; ref Quintás-Cardama et al., 2009; cited from earlier work

## Cc1ccc(NC(=O)c2ccc(CN3CCN(C)CC3)cc2)cc1Nc1nccc(-c2cccnc2)n1 [imatinib]
[1]
  MEK and ERK activation: activated MEK and ERK
BV173 cells
  BCR-ABL and CRKL phosphorylation: inhibited BCR-ABL and CRKL phosphorylation
  MEK and ERK activity: inhibited MEK and ERK
[2]
  MEK and ERK phosphorylation: did not increase MEK and ERK phosphorylation
CML
  patients who do not achieve complete responses: 20-30%

From publication PMC3951999 (Cancer cell, 2011)
